Measured values reported in PMC8041284, “Tunable Methacrylamides for Covalent Ligand Directed Release Chemistry” (Journal of the American Chemical Society, 2021).
Read-outs that look alike come from different tables or passages of the source.

Target: BTK (Homo sapiens, UniProt Q06187)
[1] = 0.75 uM BTK, […] probe 3l, 15 min preincubation; 10 µM; inhibitor
[2] = 0.75 uM BTK, […] probe 3l, 15 min preincubation, 10 µM, inhibitor, BTK inhibition (%)

BTK, sequence (Q06187 402-655 limits assumed): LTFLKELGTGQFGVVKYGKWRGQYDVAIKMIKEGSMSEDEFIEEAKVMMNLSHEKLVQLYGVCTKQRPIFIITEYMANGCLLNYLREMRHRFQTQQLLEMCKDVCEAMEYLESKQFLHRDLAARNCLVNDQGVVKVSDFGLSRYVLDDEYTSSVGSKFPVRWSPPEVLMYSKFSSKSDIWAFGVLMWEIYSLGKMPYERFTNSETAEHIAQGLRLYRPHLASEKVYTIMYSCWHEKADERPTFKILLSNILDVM

Row | Structure (SMILES) | BTK inhibition (%) [1] | BTK inhibition (%) [2] | further results
1 | CN1[C@@H]2CC(OC(=O)[C@H](CO)c3ccccc3)C[C@H]1[C@@H]1O[C@@H]12 (stereo partly shown) [PCM-0086586] | -3.1% | – | –
2 | COc1ccc2c(c1)[nH]c1c(C)nccc12 [PCM-0088555] | -17.1% | – | –
3 | COC(=O)C1=C(C)NC(C)=C(C(=O)OCCN2CCN(C(c3ccccc3)c3ccccc3)CC2)C1c1cccc([N+](=O)[O-])c1 (stereo not shown) [PCM-0090281] | 34.2% | – | –
4 | Nc1nc2[nH]cc(CCc3ccc(C(=O)N[C@@H](CCC(=O)O)C(=O)O)cc3)c2c(=O)[nH]1 [PCM-0090283] | – | 2.6% | –
5 | Cc1c(O)c(=O)ccn1C [PCM-0090746] | – | -11.9% | –
6 | COC1=C[C@@H]2[C@@H]3Cc4ccc(OC)c(O)c4[C@]2(CCN3C)CC1=O [PCM-0090951] | – | – | BTK inhibition (%) (10 µM, inhibitor): 14.8%
7 | O=c1ccc2cc(O[C@@H]3O[C@H](CO)[C@@H](O)[C@H](O)[C@H]3O)c(O)cc2o1 [PCM-0091361] | 0% | – | –
8 | c1cc2c(cc1[C@H]1OC[C@H]3[C@@H]1CO[C@@H]3c1ccc3c(c1)OCO3)OCO2 [PCM-0094427] | -24.1% | – | –
9 | N#C[C@H](O[C@@H]1O[C@H](CO[C@@H]2O[C@H](CO)[C@@H](O)[C@H](O)[C@H]2O)[C@@H](O)[C@H](O)[C@H]1O)c1ccccc1 [PCM-0094813] | – | – | BTK inhibition (%) (10 µM; inhibitor): -12.5%
10 | C[C@H](O)[C@H](O)[C@@H](O)[C@@H](O)C=O [PCM-0094862] | – | -7.8% | –
11 | CC[C@@]1(O)C(=O)OCc2c1cc1n(c2=O)Cc2cc3cc(O)ccc3nc2-1 [PCM-0094873] | -14% | – | –
12 | C=C1[C@H](CO)[C@@H](O)C[C@@H]1n1cnc2c(=O)[nH]c(N)nc21 [PCM-0095007] | – | -4.7% | –
13 | C[N+]1(C)[C@@H]2CC(OC(=O)[C@H](CO)c3ccccc3)C[C@H]1[C@@H]1O[C@@H]12 (stereo partly shown) [PCM-0095246] | 10.9% | – | –
14 | C[N+]1(C)[C@@H]2CC(OC(=O)C(O)(c3cccs3)c3cccs3)C[C@H]1[C@@H]1O[C@@H]12 (stereo partly shown) [PCM-0095323] | -5.4% | – | –
15 | O=C(OC1C[C@H]2CC[C@@H](C1)[N+]21CCCC1)C(O)(c1ccccc1)c1ccccc1 (stereo partly shown) [PCM-0095326] | 7% | – | –
16 | CN[C@H]1C[C@@H](N)[C@H](O)[C@@H](O[C@@H]2O[C@H](CO)[C@H](O)[C@@H]3OC4(O[C@H]23)O[C@H]([C@@H](N)CO)[C@H](O)[C@H](O)[C@H]4O)[C@@H]1O (stereo partly shown) [PCM-0095389] | 0% | – | –
17 | Cc1ccccc1C(=O)Nc1ccc(C(=O)N2CCCC(N(C)C)c3ccccc32)cc1 (stereo not shown) [PCM-0095419] | – | -13.6% | –
18 | Cc1ccccc1C(=O)Nc1ccc(C(=O)N2CCCC(N(C)C)c3ccccc32)cc1 (stereo not shown) [PCM-0095424] | – | 70% | –
19 | CCOC(=O)C1=C[C@@H](OC(CC)CC)[C@H](NC(C)=O)[C@@H](N)C1 [PCM-0095436] | -10.2% | – | –
20 | O=C(O[C@H]1CN2CCC1CC2)N1CCc2ccccc2[C@@H]1c1ccccc1 [PCM-0095538] | -27.2% | – | –

Row | Structure (SMILES) | BTK inhibition (%) [1] | BTK inhibition (%) [2] | further results
21 | CN1[C@@H]2CC[C@H]1CC(OC(=O)[C@H](CO)c1ccccc1)C2 (stereo partly shown) [PCM-0095561] | -14.8% | – | –
22 | CN1CCc2cc3c(cc2[C@H]1[C@@H]1OC(=O)c2c1ccc1c2OCO1)OCO3 [PCM-0095582] | – | – | BTK inhibition (%) (10 µM; inhibitor): -0.8%
23 | CC(=O)OC(C)(C)/C=C/C(=O)[C@](C)(O)[C@H]1[C@H](O)C[C@@]2(C)[C@@H]3CC=C4[C@@H](C[C@H](O)C(=O)C4(C)C)[C@]3(C)C(=O)C[C@]12C [PCM-0214542] | – | – | BTK inhibition (%) (10 µM; inhibitor): -10%
24 | COc1ccc2[nH]c([S@@+]([O-])Cc3ncc(C)c(OC)c3C)nc2c1 [PCM-0214571] | – | -13.2% | –
25 | CC1=C(O)C(=O)C=C2C1=CC=C1[C@@]2(C)CC[C@@]2(C)[C@@H]3C[C@](C)(C(=O)O)CC[C@]3(C)CC[C@]12C [PCM-0214611] | 67.7% | – | –
26 | CC(=O)O[C@H]1C[C@@H]2CC[C@@H]3[C@H](CC[C@@]4(C)[C@H]3C[C@H]([N+]3(C)CCCCC3)[C@@H]4OC(C)=O)[C@@]2(C)C[C@@H]1N1CCCCC1 [PCM-0214623] | -6.2% | – | –
27 | CC(C)[N+]1(C)[C@@H]2CC[C@H]1CC(OC(=O)C(CO)c1ccccc1)C2 (stereo partly shown) [PCM-0214646] | -24.9% | – | –
28 | C[C@@H]1CC[C@@]2(OC1)O[C@H]1C[C@H]3[C@@H]4CC=C5C[C@@H](O[C@@H]6O[C@H](CO)[C@@H](O[C@@H]7O[C@@H](C)[C@H](O)[C@@H](O)[C@H]7O)[C@H](O)[C@H]6O[C@@H]6O[C@@H](C)[C@H](O)[C@@H](O)[C@H]6O)CC[C@]5(C)[C@H]4CC[C@]3(C)[C@H]1[C@@H]2C [PCM-0214660] | 38.1% | – | –
29 | CC(=O)O[C@H]1C[C@@H]2CC[C@@H]3[C@H](CC[C@@]4(C)[C@H]3C[C@H]([N+]3(C)CCCCC3)[C@@H]4OC(C)=O)[C@@]2(C)C[C@@H]1[N+]1(C)CCCCC1 [PCM-0214687] | -21% | – | –
30 | CO/N=C(\C(=O)N[C@@H]1C(=O)N2C(C(=O)O)=C(CSC(=O)c3ccco3)CS[C@H]12)c1csc(N)n1 [PCM-0214692] | – | 0% | –
31 | CC[C@H]1OC(=O)[C@H](C)[C@@H](O[C@H]2C[C@@](C)(OC)[C@@H](O)[C@H](C)O2)[C@H](C)[C@@H](O[C@@H]2O[C@H](C)C[C@H](N(C)C)[C@H]2O)[C@](C)(O)C[C@@H](C)C(=O)[C@H](C)[C@@H](O)[C@]1(C)O [PCM-0214693] | – | 5.4% | –
32 | CC(C)=CCC[C@]1(C)C=Cc2c(O)c3c(c(CC=C(C)C)c2O1)O[C@]12C(=C[C@@H]4C[C@H]1C(C)(C)O[C@@]2(C/C=C(/C)C(=O)O)C4=O)C3=O [PCM-0214728] | -1.6% | – | –
33 | CC(C)[C@]12O[C@H]1[C@@H]1O[C@]13[C@]1(O[C@H]1C[C@H]1C4=C(CC[C@@]13C)C(=O)OC4)[C@@H]2O [PCM-0214731] | 6.2% | – | –
34 | O=C(O[C@H]1C[N+]2(CCCOc3ccccc3)CCC1CC2)C(O)(c1cccs1)c1cccs1 [PCM-0214751] | -24.1% | – | –
35 | CC[C@H]1OC(=O)[C@H](C)[C@@H](O[C@H]2C[C@@](C)(OC)[C@@H](O)[C@H](C)O2)[C@H](C)[C@@H](O[C@@H]2O[C@H](C)C[C@H](N(C)C)[C@H]2O)[C@](C)(O)C[C@@H](C)CN(C)[C@H](C)[C@@H](O)[C@]1(C)O [PCM-0214754] | – | 1.6% | –
36 | C[C@@H]1O[C@@H](O[C@H]2C[C@@H](O)[C@]3(CO)[C@H]4[C@H](O)C[C@]5(C)[C@@H](C6=CC(=O)OC6)CC[C@]5(O)[C@@H]4CC[C@]3(O)C2)[C@H](O)[C@H](O)[C@H]1O [PCM-0214805] | -5.4% | – | –
37 | CCN(Cc1ccc(Cl)nc1)/C(=C/[N+](=O)[O-])NC [PCM-0214807] | 7% | – | –
38 | CC(C(=O)O)c1cccc(Oc2ccccc2)c1 (stereo not shown) [PCM-0214813] | – | 4.8% | –
39 | COc1ccc2[nH]c([S@@+]([O-])Cc3ncc(C)c(OC)c3C)nc2c1 [PCM-0214815] | – | -10.9% | –
40 | CCC(=O)NS(=O)(=O)c1ccc(-c2c(-c3ccccc3)noc2C)cc1 [PCM-0214825] | – | 5.5% | –
